pKi: −log10 of the molar value.
molecular target: Mcl-1 protein (UniProtKB Q07820) (Homo sapiens (Human), UniProt Q07820); experiment: Inhibition of Mcl-1 by the fluorescence polarisation assay (Example A, Method A); format: binding; conditions: fluorescence polarization assay
How it was run: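 Protein (5 nM) and fluorescein-tagged peptide tracer (1 nM) incubated with 11-point compound series for 2 h at room temperature in HEPES/NaCl/Tween 20 buffer, pH 7.4, 5% DMSO. Displacement read as decrease in polarisation; IC50 fitted by 4-parameter logistic, converted to Ki (cKi or eKi).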

Sequence of Mcl-1 protein (Q07820 whole entry): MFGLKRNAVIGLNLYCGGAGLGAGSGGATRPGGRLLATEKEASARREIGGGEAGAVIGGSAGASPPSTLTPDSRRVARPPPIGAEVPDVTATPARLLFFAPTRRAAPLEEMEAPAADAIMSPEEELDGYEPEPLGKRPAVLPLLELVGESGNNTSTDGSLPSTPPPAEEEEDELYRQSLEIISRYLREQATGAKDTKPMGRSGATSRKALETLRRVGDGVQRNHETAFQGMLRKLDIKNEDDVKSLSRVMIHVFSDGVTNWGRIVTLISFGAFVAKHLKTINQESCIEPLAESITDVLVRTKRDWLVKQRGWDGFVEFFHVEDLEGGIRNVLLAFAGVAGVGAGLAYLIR

Compound | pKi
O=C(O)[C@]1(Nc2cccc(Cl)c2)CC[C@]2(CC1)C(C#Cc1ccccn1)=Cc1ccccc12 [Example 170, (1s,4s)-4-(3-chloroanilino)-2′-[(pyridin-2-yl)ethynyl]spiro[cyclohexane-1,1′-indene]-4-carboxylic acid] | 5.72
O=C(O)[C@]1(Nc2cccc(Cl)c2)CC[C@@]2(CC1)c1ccccc1CC2CCCOc1n[nH]c2c1CCCC2 (stereo partly shown) [Example 433, (1r,4r)-4-(3-chloroanilino)-2′-{3-[(4,5,6,7-tetrahydro-1H-indazol-3-yl)oxy]propyl}-2′,3′-dihydrospiro[cyclohexane-1,1′-indene]-4-carboxylic acid] | 5.76
O=C(O)[C@]1(Nc2cccc(Cl)c2)CC[C@]2(CC1)C(c1ccc(OCc3ccncc3)cc1)=Cc1ccccc12 [Example 349, (1s,4s)-4-(3-chloroanilino)-2′-{4-[(pyridin-4-yl)methoxy]phenyl}spiro[cyclohexane-1,1′-indene]-4-carboxylic acid] | 5.44
O=C(O)[C@]1(Nc2cccc(Cl)c2)CC[C@@]2(CC1)c1ccccc1CC2CCCN1CCOCC1 (stereo partly shown) [Example 196, (1r,4r)-4-(3-chloroanilino)-2′-[3-(morpholin-4-yl)propyl]-2′,3′-dihydrospiro[cyclohexane-1,1′-indene]-4-carboxylic acid] | 5.02
COc1cccc(C2Cc3ccccc3[C@]23CC[C@@](Nc2cccc(Cl)c2)(C(=O)O)CC3)c1Cl (single isomer, unassigned) [Example 291, (1r,4r)-4-(3-chloroanilino)-2′-(2-chloro-3-methoxyphenyl)-2′,3′-dihydrospiro[cyclohexane-1,1′-indene]-4-carboxylic acid] | 5.60
Cc1ccc(C2=Cc3ccccc3[C@]23CC[C@@](Nc2cccc(Cl)c2)(C(=O)O)CC3)cc1 [Example 297, (1s,4s)-4-(3-chloroanilino)-2′-(4-methylphenyl)spiro[cyclohexane-1,1′-indene]-4-carboxylic acid] | 5.63
Cc1ccc(C)c2c1CC(C)C21CCC(Nc2cccc(Br)c2)(C(=O)O)CC1 (stereo not shown) [Example 123, 4-(3-bromoanilino)-2′,4′,7′-trimethyl-2′,3′-dihydrospiro[cyclohexane-1,1′-indene]-4-carboxylic acid] | 5.19
O=C(O)[C@]1(Nc2cccc(Cl)c2)CC[C@@]2(CC1)c1ccccc1CC2c1ccccc1 (single isomer, unassigned) [Example 327, (1r,4r)-4-(3-chloroanilino)-2′-phenyl-2′,3′-dihydrospiro[cyclohexane-1,1′-indene]-4-carboxylic acid] | 5.15
O=C(O)[C@]1(Nc2cccc(Cl)c2)CC[C@]2(CC1)C(c1ccsc1)=Cc1ccccc12 [Example 330, (1s,4s)-4-(3-chloroanilino)-2′-(thiophen-3-yl)spiro[cyclohexane-1,1′-indene]-4-carboxylic acid] | 5.67
COc1ccc2c(c1)[C@]1(CC2)CC[C@@](Nc2cccc(Br)c2)(C(=O)O)CC1 [Example 62, (1s,4r)-4-(3-bromoanilino)-6′-methoxy-2′,3′-dihydrospiro[cyclohexane-1,1′-indene]-4-carboxylic acid] | 4.36
O=C(O)[C@]1(Nc2cccc(Cl)c2)CC[C@@]2(CC1)c1ccccc1C[C@@H]2c1cccc(OCc2ccccc2)c1 [Example 333, (1r,2′R,4R)-2′-[3-(benzyloxy)phenyl]-4-(3-chloroanilino)-2′,3′-dihydrospiro[cyclohexane-1,1′-indene]-4-carboxylic acid] | 4.88
O=C(O)[C@]1(Nc2cccc(Cl)c2)CC[C@@]2(CC1)c1ccccc1CC2c1cccc(OCC2CC2)c1 (single isomer, unassigned) [Example 355, (1r,4r)-4-(3-chloroanilino)-2′-[3-(cyclopropylmethoxy)phenyl]-2′,3′-dihydrospiro[cyclohexane-1,1′-indene]-4-carboxylic acid] | 5.00
C[C@@H](COc1ccnc(N)c1)C[C@H]1Cc2ccccc2[C@]12CC[C@@](Nc1cccc(Cl)c1)(C(=O)O)CC2 [Example 583, (1r,2′S,4S)-2′-{(2R)-3-[(2-aminopyridin-4-yl)oxy]-2-methylpropyl}-4-(3-chloroanilino)-2′,3′-dihydrospiro[cclohexane-1,1′-indene]-4-carboxylic acid] | 6.72
O=C(NCCc1ccccc1)C1Cc2ccccc2[C@]12CC[C@@](Nc1cccc(Cl)c1)(C(=O)O)CC2 (single isomer, unassigned) [Example 405, (1r,4r)-4-(3-chloroanilino)-2′-[(2-phenylethyl)carbamoyl]-2′,3′-dihydrospiro[cyclohexane-1,1′-indene]-4-carboxylic acid] | 4.82
O=C(O)[C@]1(Nc2cccc(Br)c2)CC[C@@]2(CC1)c1ccccc1C[C@@H]2c1ccccc1 [Example 211, (1r,2′R,4R)-4-(3-bromoanilino)-2′-phenyl-2′,3′-dihydrospiro[cyclohexane-1,1′-indene]-4-carboxylic acid] | 4.96
COc1cccc(C2Cc3ccccc3[C@]23CC[C@@](Nc2cccc(Cl)c2)(C(=O)O)CC3)c1C (single isomer, unassigned) [Example 322, (1r,4r)-4-(3-chloroanilino)-2′-(3-methoxy-2-methylphenyl)-2′,3′-dihydrospiro[cyclohexane-1,1′-indene]-4-carboxylic acid] | 4.75
O=C(O)[C@]1(Nc2cccc(Cl)c2)CC[C@@]2(C=Cc3ncccc32)CC1 [Example 70, (1r,4r)-4-(3-chloroanilino)spiro[cyclohexane-1,5′-cyclopenta[b]pyridine]-4-carboxylic acid] | 4.59

The next lines start with the values.

pKi | Compound
5.82 | CC(C)C(COc1ccncc1)CC1Cc2ccccc2[C@]12CC[C@@](Nc1cccc(Cl)c1)(C(=O)O)CC2 (single isomer, unassigned) [Example 534, (1r,4r)-4-(3-chloroanilino)-2′-(3-methyl-2-{[(pyridin-4-yl)oxy]methyl}butyl)-2′,3′-dihydrospiro[cyclohexane-1,1′-indene]-4-carboxylic acid]
6.18 | O=C(O)[C@]1(Nc2cccc(Cl)c2)CC[C@]2(CC1)C(c1ccccc1)=Cc1ccccc12 [Example 305, (1s,4s)-4-(3-chloroanilino)-2′-phenylspiro[cyclohexane-1,1′-indene]-4-carboxylic acid]
6.97 | O=C(O)[C@]1(Nc2cccc(Cl)c2)CC[C@@]2(CC1)c1ccccc1CC2CCCOc1ccccc1C(F)(F)F (stereo partly shown) [Example 443, (1r,4r)-4-(3-chloroanilino)-2′-{3-[2-(trifluoromethyl)phenoxy]propyl}-2′,3′-dihydrospiro[cyclohexane-1,1′-indene]-4-carboxylic acid]
6.13 | O=C(O)[C@]1(Nc2cccc(Cl)c2)CC[C@@]2(CC1)c1ccccc1CC2CCCOC1CCOCC1 (stereo partly shown) [Example 467, (1r,4r)-4-(3-chloroanilino)-2′-{3-[(oxan-4-yl)oxy]propyl}-2′,3′-dihydrospiro[cyclohexane-1,1′-indene]-4-carboxylic acid]
6.49 | O=C(O)[C@]1(Nc2cccc(Cl)c2)CC[C@@]2(CC1)c1ccccc1CC2CCCOc1cccc2[nH]cnc12 (stereo partly shown) [Example 469, (1r,4r)-2′-{3-[(1H-benzimidazol-4-yl)oxy]propyl}-4-(3-chloroanilino)-2′,3′-dihydrospiro[cyclohexane-1,1′-indene]-4-carboxylic acid]
6.08 | COc1cccc(C2=Cc3ccccc3[C@]23CC[C@@](Nc2cccc(Cl)c2)(C(=O)O)CC3)c1 [Example 253, (1s,4s)-4-(3-chloroanilino)-2′-(3-methoxyphenyl)spiro[cyclohexane-1,1′-indene]-4-carboxylic acid]
6.30 | O=C(O)[C@]1(Nc2cccc(Cl)c2)CC[C@]2(CC1)C(COCc1ccccc1)=Cc1ccccc12 [Example 179, (1s,4s)-2′-[(benzyloxy)methyl]-4-(3-chloroanilino)spiro[cyclohexane-1,1′-indene]-4-carboxylic acid]
6.64 | O=C(O)[C@]1(Nc2cccc(Br)c2)CC[C@]2(CC1)C(I)=Cc1ccccc12 [Example 77, (1s,4s)-4-(3-bromoanilino)-2′-iodospiro[cyclohexane-1,1′-indene]-4-carboxylic acid]
5.87 | O=C(O)C1(Nc2cccc(Br)c2)CCC2(CC1)c1ccccc1CC2CCCc1ccccc1 (single isomer, unassigned) [Example 151, (1r,4r)-4-(3-bromoanilino)-2′-(3-phenylpropyl)-2′,3′-dihydrospiro[cyclohexane-1,1′-indene]-4-carboxylic acid]
6.52 | Cc1ccc(C2Cc3ccccc3C23CCC(Nc2cccc(Br)c2)(C(=O)O)CC3)o1 (stereo not shown) [Example 239, 4-(3-bromoanilino)-2′-(5-methylfuran-2-yl)-2′,3′-dihydrospiro[cyclohexane-1,1′-indene]-4-carboxylic acid]
6.24 | O=C(O)[C@]1(Nc2cccc(Cl)c2)CC[C@]2(CC1)C(C1CC(OCc3ccccc3)C1)=Cc1ccccc12 (stereo partly shown) [Example 97, (1r,4r)-2′-[3-(benzyloxy)cyclobutyl]-4-(3-chloroanilino)spiro[cyclohexane-1,1′-indene]-4-carboxylic acid]
7.13 | O=C(O)[C@]1(Nc2cccc(Cl)c2)CC[C@]2(CC1)C(c1cccc(Oc3ccncc3)c1)=Cc1ccccc12 [Example 377, (1s,4s)-4-(3-chloroanilino)-2′-{3-[(pyridin-4-yl)oxy]phenyl}spiro[cyclohexane-1,1′-indene]-4-carboxylic acid]
6.24 | O=C(O)[C@]1(Nc2cncc(Br)c2)CC[C@]2(CC1)C(Br)=Cc1ccccc12 [Example 79, (1s,4s)-2′-bromo-4-[(5-bromopyridin-3-yl)amino]spiro[cyclohexane-1,1′-indene]-4-carboxylic acid]
6.81 | C[C@@H](COc1ccccc1)CC1Cc2ccccc2[C@]12CC[C@@](Nc1cccc(Cl)c1)(C(=O)O)CC2 (stereo partly drawn) [Example 567, (1r,4R)-4-(3-chloroanilino)-2′-[(2R)-2-methyl-3-phenoxypropyl]-2′,3′-dihydrospiro[cyclohexane-1,1′-indene]-4-carboxylic acid]

Reference: patent US20240150293A1, “SPIROCYCLOHEXANE DERIVATIVES, PHARMACEUTICAL COMPOSITIONS CONTAINING THEM AND THEIR USES AS ANTI-APOPTOTIC INHIBITORS” (LES LABORATOIRES SERVIER, priority 2021, published 2024)
